Measurements: ChEMBL document CHEMBL1141875, “Antitumor-active cobalt-alkyne complexes derived from acetylsalicylic acid: studies on the mode of drug action” (J Med Chem, 2005)

Legend:
[1] = Antiproliferative activity in MCF-7 human breast cancer cells; assay type: functional, cell-based, MCF7
[2] = Antiproliferative activity in MDA-MB 231 human breast cancer cells; assay type: functional, cell-based, Cancer cell lines
[3] = Lipophilicity was reported; assay type: physicochemical; conditions: human, octanol/water
Cancer cell lines [4] = assay: Content in MDA-MB 231 human breast cancer cell nuclei was reported; assay type: functional, cell-based
Cancer cell lines [5] = assay: Percentage of content in MCF-7 human breast cancer cell nuclei was reported; assay type: functional, cell-based
Cancer cell lines [6] = assay: Percentage of content in MDA-MB 231 human breast cancer cell nuclei was reported; assay type: functional, cell-based
Nucleic Acid = assay: DNA-binding efficacy; assay type: nucleic-acid assay
Cancer cell lines [7] = assay: Content in MCF-7 human breast cancer cell nuclei was reported; assay type: functional, cell-based
[8] = test system: Glutathione reductase (Homo sapiens); assay: Percentage influence on cellular glutathione reductase activity
[9] = Homo sapiens, Cancer cell lines

Row | Compound | IC50 ([1]; Homo sapiens, MCF7) [µM] | IC50 [2, 9] [µM] | IC50 ([1]; mcf7) [µM] | IC50 ([2]; cancer cell lines) [µM] | other results
1 | N[C@@H](Cc1ccc(N(CCCl)CCCl)cc1)C(=O)O | 5.7 | 3.9 | – | – | –
2 | O=c1[nH]cc(F)c(=O)[nH]1 [FLUOROURACIL] | 4.8 | 9.6 | – | – | –
3 | CISPLATIN | – | – | 2 | 4 | –
4 | Co-ASS [listing 1 of 2 here] | – | – | 1.4 | 1.9 | Log Kw [3]: 4.91
5 | Co-ASS [listing 2 of 2 here] | – | – | – | – | Activity (Cancer cell lines [4]): 0.22 pmol/µg; Activity (Cancer cell lines [5]): 0.8%; Activity (Cancer cell lines [6]): 5%; Activity (Nucleic Acid): 9.82 pmol/µg; Activity (Cancer cell lines [7]): 0.12 pmol/µg; Activity [8]: 93%
